Patent US20260284005A1, “INHIBITING MITOGEN-ACTIVATED PROTEIN (MAP)/ERK KINASE (MEK)1 AND MEK2 AND RELATED METHODS OF TREATMENT” (priority 2023, published 2026)
Where two headings read alike, the source gives them in different places. Each block holds one compound with its values, some of them ahead of it.

Tests used:
[1] = tested on: tumor models (cell lines); test: Humanized 3D tumor growth assay (3D-TGA), tumor model panel / other cell lines; type: cell-based, human; details: Homo sapiens, agent alone
Source text: The humanized 3D tumor growth assay (3D-TGA) is an extracellular matrix (ECM)-based, 3D tumor model that more faithfully mimics the human tumor microenvironment (TME) with the goal of improving translational fidelity to patients. See Casneuf T, et al., “Interleukin-6 is a potential therapeutic target in interleukin-6 dependent, estrogen receptor-α-positive breast cancer,” Breast Cancer (Dove Med Press). […] MEK inhibition in the 3D-TGA. […]
All cell lines were validated by IDEXX upon receipt and assay setup. See Appendix for full cell line list.
(§1) Cells were seeded in 3D cultures in a black-walled, clear-bottom, non-tissue culture treated, 384-well plate (3000 cells per well) using a 1:1 mixture of BME and a custom media and grown in a humidified incubator with 5% CO2 and 5% O2, which approximates capillary levels for each gas, at 37° C. […] Cells were assessed for cell proliferation using EdU cell proliferation staining. […] Cells were permeabilized with 30 μL of filtered 0.5% Triton X-100 in PBS for 20 minutes at room temperature. Samples were washed twice gently with PBS. Cells were stained utilizing click-iT chemistry by adding 20 μL of staining cocktail containing 2 mM copper sulfate, 8 μM sulfo-Cy5-azide, and 20 mg/ml ascorbic acid in PBS and incubated 30-60 minutes at room temperature in dark. […] Plates were imaged with the Molecular Devices Pico ImageXpress. Images were segmented and percentage of cells with EdU incorporation was quantified to calculate antiproliferative effects of the drugs.
(§2) Five (5)-ethynyl-2′-deoxyuridine (EdU) data was represented as percentage EdU positive cells quantified by high content imaging from the Molecular Devices ImageXpress® Pico.

[2] = tested on: NCI-H2087 cells; test: 3D-TGA; type: cell-based; details: Homo sapiens, NCI-H2087, LUN, NRAS Q61K, ALK S553A, agent alone
Procedure: as §1, §2

[3] = tested on: CORL23 cells; test: 3D-TGA; type: cell-based; details: Homo sapiens, COR-L23, CORL23, LUN, KRAS G12V, ALK R317T, agent alone
Procedure: as §1, §2

[4] = tested on: LS1034 cells; test: 3D-TGA; type: cell-based, human; details: Homo sapiens, LS-1034; LS1034, COL, KRAS A146T; read-out: IC50 in 3D-TGA, agent alone
Procedure: as §1, §2

[5] = tested on: HT-29 cells; test: 3D-TGA; type: cell-based, human; details: Homo sapiens, HT-29, read-out: IC50 in 3D-TGA, agent alone
Procedure: as §1, §2

[6] = tested on: SW626 cells; test: 3D-TGA; type: cell-based, human; details: Homo sapiens, SW626, read-out: IC50 in 3D-TGA, agent alone
Procedure: as §1, §2

[7] = tested on: CL-40 cells; test: 3D-TGA; type: cell-based, human; details: Homo sapiens, read-out: IC50 in 3D-TGA, agent alone
Procedure: as §1, §2

[8] = tested on: SNU-1197 cells; test: 3D-TGA; type: cell-based, human; details: Homo sapiens, read-out: IC50 in 3D-TGA, agent alone
Procedure: as §1, §2

[9] = tested on: RCM-1 cells; test: 3D-TGA; type: cell-based, human; details: Homo sapiens, RCM-1, read-out: IC50 in 3D-TGA, agent alone
Procedure: as §1, §2

[10] = tested on: PANC-1 cells; test: 3D-TGA; type: cell-based, human; details: Homo sapiens; PANC-1, PAN, KRAS G12D; read-out: IC50 in 3D-TGA, agent alone
Procedure: as §1, §2

[11] = tested on: A549 cells; test: 3D-TGA; type: cell-based, human; details: Homo sapiens; A549, LUN, KRAS G12S; agent alone; read-out: IC50 in 3D-TGA Talazoparib
Procedure: as §1, §2

[12] = tested on: NCI-H1792 cells; test: 3D-TGA; type: cell-based, human; details: Homo sapiens, NCI-H1792, LUN, KRAS G12C
[13] = tested on: NCI-H2030 cells; test: 3D-TGA; type: cell-based, human; details: Homo sapiens, NCI-H2030, read-out: IC50 in 3D-TGA, KRAS G12C inhibitor alone
Procedure: as §1, §2

[14] = tested on: HCC-44 cells; test: 3D-TGA; type: cell-based, human; details: Homo sapiens, HCC44, read-out: IC50 in 3D-TGA, KRAS G12C inhibitor alone
Procedure: as §1, §2

[15] = tested on: LU99 cells; test: 3D-TGA; type: cell-based, human; details: Homo sapiens, Lu-99, read-out: IC50 in 3D-TGA, KRAS G12C inhibitor alone
Procedure: as §1, §2

[16] = tested on: NCI-H2122 cells; test: 3D-TGA; type: cell-based, human; details: Homo sapiens, NCI-H2122, read-out: IC50 in 3D-TGA, KRAS G12C inhibitor alone
Procedure: as §1, §2

[17] = tested on: NCI-H358 cells; test: 3D-TGA; type: cell-based, human; details: Homo sapiens; NCI-H358, LUN, KRAS G12C; read-out: IC50 in 3D-TGA, KRAS G12C inhibitor alone
[18] = tested on: MIA PaCa-2 (KRAS G12C) pancreatic xenograft; test: MIA PaCa-2 pancreatic xenograft tumor model; type: in vivo, athymic nude mice; details: MIA PaCa-2 KRAS G12C xenograft, 21 days
Source text: Gemcitabine (antimetabolite), nab-paclitaxel (taxane) and fluorouracil (5-FU; antimetabolite) were commercially purchased. All studies started with 12 animals, per group. Mice within specific groups randomized for cross-over of treatments (≥day 42). […] Additive models: MIA PaCa-2, PA-TU-8988S, CFPAC-1, HPAF-II, Panc 03.27, PSN-1, Panc 10.05, Capan-1, HPAC, PANC-1.

[19] = read-out: IC50 in 3D-TGA Brigatinib
[20] = read-out: IC50 in 3D-TGA Lorlatinib
[21] = read-out: IC50 in 3D-TGA, KRAS G12C inhibitor alone

SMILES: COc1cccc2c1C(=O)c1c(O)c3c(c(O)c1C2=O)C[C@@](O)(C(C)=O)C[C@@H]3O[C@H]1C[C@H](N)[C@H](O)[C@H](C)O1 [Daunorubicin, daunorubicin]
IC50 ([1]; HL-60, HL-60, AML, NRAS Q61L, read-out: IC50 in 3D-TGA Daunorubicin): 0.0676 µM
IC50 ([1]; NB4, AML, KRAS Amp, read-out: IC50 in 3D-TGA Daunorubicin): 0.0632 µM
IC50 ([1]; OCI-AML-3, OCI-AML3, AML, NRAS Q61L, read-out: IC50 in 3D-TGA Daunorubicin): 0.028 µM
IC50 ([1]; PL-21, PL-21, AML, KRAS A146V, read-out: IC50 in 3D-TGA Daunorubicin): 0.0641 µM
IC50 ([1]; TF-1, AML, NRAS Q61P, read-out: IC50 in 3D-TGA Daunorubicin): 0.0562 µM
IC50 ([1]; THP-1, THP-1, AML, NRAS G12D, read-out: IC50 in 3D-TGA Daunorubicin): 0.119 µM

SMILES: CC(=O)O[C@H]1C(=O)[C@@]2(C)[C@H]([C@H](OC(=O)c3ccccc3)[C@]3(O)C[C@H](OC(=O)[C@H](O)[C@@H](NC(=O)c4ccccc4)c4ccccc4)C(C)=C1C3(C)C)[C@]1(OC(C)=O)CO[C@@H]1C[C@@H]2O [Paclitaxel, paclitaxel]
IC50 [4]: 1 µM
IC50 [5]: < 0.05 µM
IC50 [6]: < 0.05 µM
IC50 [7]: < 0.05 µM
IC50 [8]: 0.1 to 0.5 µM
IC50 [9]: 0.1 to 0.5 µM
IC50 [10]: 1 µM

SMILES: Cn1ncnc1[C@H]1c2n[nH]c(=O)c3cc(F)cc(c23)N[C@@H]1c1ccc(F)cc1 [Talazoparib, talazoparib]
IC50 ([1]; HL-60, HL-60, AML, NRAS Q61L, read-out: IC50 in 3D-TGA Talazoparib): > 1 µM
IC50 ([1]; NCI-H1734, NCI-H1734, LUN, KRAS G13C, read-out: IC50 in 3D-TGA Talazoparib): > 1 µM
IC50 ([1]; THP-1, THP-1, AML, NRAS G12D, read-out: IC50 in 3D-TGA Talazoparib): > 1 µM
IC50 [11]: > 1 µM
IC50 ([12]; agent alone, read-out: IC50 in 3D-TGA Talazoparib): 0.5 to 1 µM

SMILES: C=C(F)C(=O)N1CCN(c2nc(OC[C@@H]3CCCN3C)nc3c2CCN(c2cccc4cccc(Cl)c24)C3)C[C@@H]1CC#N [adagrasib]
IC50 [13]: < 0.05 µM
IC50 [14]: > 1 µM
IC50 [15]: > 1 µM
IC50 [16]: > 1 µM
IC50 [12, 21]: > 1 µM
IC50 [17]: 0.05 to 0.1 µM

SMILES: C=CC(=O)N1CCN(c2nc(=O)n(-c3c(C)ccnc3C(C)C)c3nc(-c4c(O)cccc4F)c(F)cc23)[C@@H](C)C1 [sotorasib]
IC50 [13]: < 0.05 µM
IC50 [14]: > 1 µM
IC50 [15]: > 1 µM
IC50 [16]: > 1 µM
BWL [18]: insignificant BWL
IC50 [12, 21]: > 1 µM
IC50 [17]: 0.1 to 0.5 µM

Results, then the compound that gave them:

IC50 ([1]; HL-60, HL-60, AML, NRAS Q61L, read-out: IC50 in 3D-TGA Azacitidine): 1 µM
IC50 ([1]; KHM-1B, MM, NRAS G12C/KRAS G12C, read-out: IC50 in 3D-TGA Azacitidine): 0.1 to 0.5 µM
IC50 ([1]; NB4, AML, KRAS Amp, read-out: IC50 in 3D-TGA Azacitidine): 1 µM
IC50 ([1]; OCI-AML-3, OCI-AML3, AML, NRAS Q61L, read-out: IC50 in 3D-TGA Azacitidine): 1 µM
IC50 ([1]; PL-21, PL-21, AML, KRAS A146V, read-out: IC50 in 3D-TGA Azacitidine): 0.5 to 1 µM
IC50 ([1]; TF-1, AML, NRAS Q61P, read-out: IC50 in 3D-TGA Azacitidine): 1 µM
IC50 ([1]; THP-1, THP-1, AML, NRAS G12D, read-out: IC50 in 3D-TGA Azacitidine): 1 µM
SMILES: Nc1ncn([C@@H]2O[C@H](CO)[C@@H](O)[C@H]2O)c(=O)n1 [Azacitidine, azacitidine]

IC50 ([1]; KHM-1B, MM, NRAS G12C/KRAS G12C, read-out: IC50 in 3D-TGA Bortezomib): 0.5 to 1 µM
IC50 ([1]; L-363, L-363, MM, NRAS Q61H, read-out: IC50 in 3D-TGA Bortezomib): 1 µM
IC50 ([1]; MM1.S, MM.1S, MM, KRAS G12A, read-out: IC50 in 3D-TGA Bortezomib): 0.05 to 0.1 µM
IC50 ([1]; RPMI-8226, RPMI-8226, MM, KRAS G12A, read-out: IC50 in 3D-TGA Bortezomib): 0.1 to 0.5 µM
SMILES: CC(C)C[C@H](NC(=O)[C@H](Cc1ccccc1)NC(=O)c1cnccn1)B(O)O [Bortezomib, bortezomib]

IC50 [2, 19]: 1 µM
IC50 [3, 19]: 1 µM
SMILES: COc1cc(N2CCC(N3CCN(C)CC3)CC2)ccc1Nc1ncc(Cl)c(Nc2ccccc2P(C)(C)=O)n1 [Brigatinib, brigatinib]

IC50 ([1]; HL-60, HL-60, AML, NRAS Q61L, read-out: IC50 in 3D-TGA Decitabine): 1 µM
IC50 ([1]; NB4, AML, KRAS Amp, read-out: IC50 in 3D-TGA Decitabine): 1 µM
IC50 ([1]; OCI-AML-3, OCI-AML3, AML, NRAS Q61L, read-out: IC50 in 3D-TGA Decitabine): 1 µM
IC50 ([1]; PL-21, PL-21, AML, KRAS A146V, read-out: IC50 in 3D-TGA Decitabine): 1 µM
IC50 ([1]; TF-1, AML, NRAS Q61P, read-out: IC50 in 3D-TGA Decitabine): 0.05 µM
IC50 ([1]; THP-1, THP-1, AML, NRAS G12D, read-out: IC50 in 3D-TGA Decitabine): 1 µM
SMILES: Nc1ncn([C@H]2C[C@H](O)[C@@H](CO)O2)c(=O)n1 [Decitabine, decitabine]

IC50 [2, 20]: 1 µM
IC50 [3, 20]: 1 µM
SMILES: C[C@H]1Oc2cc(cnc2N)-c2c(nn(C)c2C#N)CN(C)C(=O)c2ccc(F)cc21 [Lorlatinib]
